This is an account of results in publication PMC6835510, “Magnificamide, a β-Defensin-Like Peptide from the Mucus of the Sea Anemone Heteractis magnifica, Is a Strong Inhibitor of Mammalian α-Amylases” (Marine Drugs, 2019).

Bridge positions count the residues as written; N and C are the ends. Ends that are not written are not given here.

For data set [1], the target named is T1, porcine pancreatic α-amylase (PPA) (Sus scrofa, UniProt P00690).
T1 construct: purchased Sigma Aldrich A4268
T1 sequence (P00690 16-511): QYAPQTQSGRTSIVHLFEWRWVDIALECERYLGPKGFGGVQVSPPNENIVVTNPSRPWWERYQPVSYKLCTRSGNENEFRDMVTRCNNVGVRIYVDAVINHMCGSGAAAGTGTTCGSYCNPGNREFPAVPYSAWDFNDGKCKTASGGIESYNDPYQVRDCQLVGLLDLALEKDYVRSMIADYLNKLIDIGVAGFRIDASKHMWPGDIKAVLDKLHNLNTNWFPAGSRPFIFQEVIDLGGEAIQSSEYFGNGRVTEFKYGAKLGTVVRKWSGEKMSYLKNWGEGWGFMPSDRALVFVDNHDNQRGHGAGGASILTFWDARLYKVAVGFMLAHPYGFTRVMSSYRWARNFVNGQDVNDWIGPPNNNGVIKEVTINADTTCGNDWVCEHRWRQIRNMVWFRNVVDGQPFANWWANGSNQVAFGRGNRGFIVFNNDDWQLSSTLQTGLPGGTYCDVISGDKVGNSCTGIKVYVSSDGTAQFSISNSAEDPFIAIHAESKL
Kind of data set: PPA inhibitory activity of RP-HPLC fractions. Format: biochemical. As to conditions: 10 µL sample, PPA 1 µg/mL, 50 mM sodium phosphate, 100 mM NaCl, pH 7.0, 10 min RT, CNPG3 1 mM, 405 nm. As to the method: The porcine α-amylase (PPA) inhibitory activity of the peptide fractions obtained by RP-HPLC was tested by the following procedure. Experimental samples (10 µL) were added to 80 µL of 50 mM sodium phosphate, 100 mM sodium chloride buffer (pH 7.0), and PPA (A4268) (1 µg/mL) (Sigma Aldrich, St. Louis, MO, USA), and incubated for 10 min at RT. The substrate solution, 2-chloro-4-nitrophenyl α-D-maltotrioside (CNPG3) (Sigma Aldrich, St. Louis, MO, USA), was added to the reaction mixture (1 mM) and incubated for 10 min at RT. The optical absorption was measured on an xMark microplate spectrophotometer (BioRad, Hercules, CA, USA) at 405 nm.

Another data set has as its system hERG. The data set can be described thus: Two-electrode voltage-clamp. Type of data set: cell-based, mammalian. As to conditions: 10 µM; Xenopus laevis oocytes; 18–22 °C. From the text: (§1) For the expression of Nav channels (mammalian rNav1.2, rNav1.4, hNav1.5, mNav1.6 and hNav1.8 channels; the insect channel BgNav1 from Blattella germanica; and the auxiliary subunits rβ1, hβ1, and TipE) and Kv channels (mammalian rKv1.1, rKv1.2, hKv1.3, rKv1.4, rKv1.5, rKv1.6, rKv2.1, hKv3.1, rKv4.2, hKv10.1, and hERG; and Drosophila Shaker’s IR) in Xenopus laevis oocytes; the linearized plasmids were transcribed using the T7 or SP6 mMESSAGE-mMACHINE transcription kit (Ambion, Carlsbad, CA, USA). The harvesting of stage V–VI oocytes from anesthetized female Xenopus laevis frog was previously described. Oocytes were injected with 50 nL of cRNA at a concentration of 1 ng/nL using a microinjector (Drummond Scientific, Broomall, PA, USA). The oocytes were incubated in a solution containing 96-mM NaCl, 2-mM KCl, 1.8-mM CaCl2, 2-mM MgCl2, and 5-mM HEPES (pH 7.4), supplemented with 50 mg/L gentamycin sulfate.
(§2) Two-electrode voltage-clamp recordings were performed at room temperature (18–22 °C) using a Geneclamp 500 amplifier (Molecular Devices, Downingtown, PA, USA) controlled by a pClamp data acquisition system (Axon Instruments, Union City, CA, USA). Whole cell currents from oocytes were recorded 1–4 days after injection. The bath solution’s composition was 96-mM NaCl, 2-mM KCl, 1.8-mM CaCl2, 2-mM MgCl2, and 5-mM HEPES (pH 7.4). Toxins were applied directly to the bath. Resistances of both electrodes were kept between 0.8 and 1.5 MΩ. The elicited currents were sampled at 20 kHz (Nav) or 2 kHz (Kv), filtered at 2 kHz (Nav) or 0.5 kHz (Kv) using a four-pole low-pass Bessel filter. Leak subtraction was performed using a -P/4 protocol. […] For the electrophysiological analysis, a number of protocols were applied from a holding potential of −90 mV with a start-to-start interval of 0.2 Hz. Kv1.1–Kv1.6 and Shaker currents were evoked by 250-ms depolarizations to 0 mV followed by a 250 ms pulse to −50 mV from a holding potential of −90 mV. Current traces of hERG channels were elicited by applying a +40 mV prepulse for 2 s followed by −120 mV for 2 s. Kv2.1, Kv3.1, and Kv4.2 currents were elicited by 250 ms pulses to +20 mV from a holding potential of −90 mV. Kv10.1 currents were evoked by 2-s depolarizing pulses to 0 mV from a holding potential of −90 mV. Sodium current traces were evoked by 100-ms depolarization to the voltage corresponding to maximal sodium current in control conditions. All data were analyzed using pClamp Clampfit 10.0 (Molecular Devices, Downingtown, PA, USA) and Origin 7.5 software (Originlab, Northampton, MA, USA).

The next data set relates to hKv1.3. Kind of data set: Two-electrode voltage-clamp. Type of data set: cell-based, mammalian. As to conditions: 10 µM; Xenopus laevis oocytes; 18–22 °C.
Excerpt: as §1, §2

The subject of another data set is hKv10.1. The data set can be described thus: Two-electrode voltage-clamp. Format: cell-based, mammalian. The conditions noted are these: 10 µM; Xenopus laevis oocytes; 18–22 °C.
Excerpt: as §1, §2

In another data set the test system is hKv3.1. The data set can be described thus: Two-electrode voltage-clamp. Format: cell-based, mammalian. As to conditions: 10 µM; Xenopus laevis oocytes; 18–22 °C.
Excerpt: as §1, §2

The test system of another data set is hNav1.5. The data set can be described thus: Two-electrode voltage-clamp. Type of data set: cell-based, mammalian. The conditions noted are these: 10 µM; Xenopus laevis oocytes; 18–22 °C.
Excerpt: as §1, §2

A further data set concerns hNav1.8. The data set can be described thus: Two-electrode voltage-clamp. As to conditions: 10 µM; Xenopus laevis oocytes; 18–22 °C. Type of data set: cell-based, mammalian.
Excerpt: as §1, §2

The next data set concerns mNav1.6. Kind of data set: Two-electrode voltage-clamp. Format: cell-based, mammalian. As to conditions: 10 µM; Xenopus laevis oocytes; 18–22 °C.
Excerpt: as §1, §2

A further data set relates to rKv1.1. Kind of data set: Two-electrode voltage-clamp. As to conditions: 10 µM; Xenopus laevis oocytes; 18–22 °C. Type of data set: cell-based, mammalian.
Excerpt: as §1, §2

In a further data set the test system is rKv1.2. Kind of data set: Two-electrode voltage-clamp. Format: cell-based, mammalian. The conditions noted are these: 10 µM; Xenopus laevis oocytes; 18–22 °C.
Excerpt: as §1, §2

A further data set concerns rKv1.4. Kind of data set: Two-electrode voltage-clamp. Type of data set: cell-based, mammalian. The conditions noted are these: 10 µM; Xenopus laevis oocytes; 18–22 °C.
Excerpt: as §1, §2

The test system of a further data set is rKv1.5. The data set can be described thus: Two-electrode voltage-clamp. Format: cell-based, mammalian. As to conditions: 10 µM; Xenopus laevis oocytes; 18–22 °C.
Excerpt: as §1, §2

For a further data set, the system named is rKv1.6. The data set can be described thus: Two-electrode voltage-clamp. Type of data set: cell-based, mammalian. As to conditions: 10 µM; Xenopus laevis oocytes; 18–22 °C.
Excerpt: as §1, §2

Another data set relates to rKv2.1. Kind of data set: Two-electrode voltage-clamp. Type of data set: cell-based, mammalian. As to conditions: 10 µM; Xenopus laevis oocytes; 18–22 °C.
Excerpt: as §1, §2

For the next data set, the system named is rKv4.2. The data set can be described thus: Two-electrode voltage-clamp. The conditions noted are these: 10 µM; Xenopus laevis oocytes; 18–22 °C. Format: cell-based, mammalian.
Excerpt: as §1, §2

For the next data set, the system named is rNav1.2. Kind of data set: Two-electrode voltage-clamp. Format: cell-based, mammalian. The conditions noted are these: 10 µM; Xenopus laevis oocytes; 18–22 °C.
Excerpt: as §1, §2

The subject of another data set is rNav1.4. Kind of data set: Two-electrode voltage-clamp. Format: cell-based, mammalian. As to conditions: 10 µM; Xenopus laevis oocytes; 18–22 °C.
Excerpt: as §1, §2

Regarding “SEGTSCYIYHGVYGICKAKCAEDMKAMAGMGVCEGDLCCYKTPW (disulfide 6-38, 16-33, 20-39) [r-magnificamide]”, the “PPA inhibition by RP-HPLC fraction” value in data set [1] was “inhibited PPA”. Also, the “Channel modulating activity, hERG” value in the data set on hERG was “Not active”. The “Channel modulating activity, Kv1.3” value in the data set with hKv1.3 was “Not active”. In the data set on hKv10.1, the “Channel modulating activity, Kv10.1” value was “Not active”. In addition, the “Channel modulating activity, Kv3.1” value in the data set on hKv3.1 is on record as “Not active”. Also, in the data set with hNav1.5, the “Channel modulating activity, Nav1.5” value is “Not active”. Further, the “Channel modulating activity, Nav1.8” value in the data set on hNav1.8 is recorded as “Not active”. Moreover, the “Channel modulating activity, Nav1.6” value in the data set on mNav1.6 was “Not active”. Further, in the data set on rKv1.1, the “Channel modulating activity, Kv1.1” value was “Not active”. Also, the “Channel modulating activity, Kv1.2” value with rKv1.2 is given as “Not active”. The “Channel modulating activity, Kv1.4” value in the data set on rKv1.4 is given as “Not active”. Moreover, in the data set with rKv1.5, the “Channel modulating activity, Kv1.5” value was “Not active”. In addition, the “Channel modulating activity, Kv1.6” value in the data set with rKv1.6 is listed as “Not active”. Also, the “Channel modulating activity, Kv2.1” value in the data set with rKv2.1 is “Not active”. Further, the “Channel modulating activity, Kv4.2” value in the data set with rKv4.2 was “Not active”. The “Channel modulating activity, Nav1.2” value in the data set with rNav1.2 is “Not active”. Moreover, the “Channel modulating activity, Nav1.4” value in the data set on rNav1.4 is “Not active”.
